Reference: patent publication US12257247B2 (Monte Rosa Therapeutics AG, priority 2023, dated 2025)
Like-named read-outs stand apart in the source and are kept apart here.

Target: T1, VAV1 (Homo sapiens, UniProt P15498+Q96SW2)
T1 construct: A heterozygous VAV1 C-terminal HiBiT knock-in pool was generated at Monte Rosa Therapeutics from a clonal Jurkat cell; endogenous in cells; host or cells: Jurkat clone stably expressing LgBiT, homozygous GSPT1-G575N; heterozygous VAV1-HiBiT knock-in pool
Test: VAV1 degradation activity, VAV1-HiBiT knock-in Jurkat luminescence assay (Example A, Table 1)
Type: cell-based
Conditions: VAV1-HiBiT knock-in Jurkat cells; for Dmax: Jurkat
Procedure, shortened: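 Jurkat cells carrying VAV1-HiBiT knock-in, plated in RPMI/10% FBS with Endurazine live-cell substrate and pre-incubated ~16 h at 37° C. Compound dosed from 10 μM stock; luminescence read 6 and 24 h later. Response normalised to plate negative/positive controls, EC50 from 3-parameter logistic fit (hillslope 1).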

[1] = luminescence read at 6 and 24 hours, read-out: VAV1 Dmax %
[2] = luminescence read at 6 and 24 hours, read-out: VAV1 Dmax %, class
[3] = luminescence read at 6 and 24 hours, read-out: VAV1 DC50
[4] = luminescence read at 6 and 24 hours, read-out: VAV1 DC50 (nM), class
[5] = luminescence read at 6 and 24 hours after compound addition, read-out: VAV1 Dmax %
[6] = luminescence read at 6 and 24 hours after compound addition, read-out: VAV1 Dmax %, class
[7] = luminescence read at 6 and 24 hours after compound addition, read-out: VAV1 DC50
[8] = luminescence read at 6 and 24 hours after compound addition, read-out: VAV1 DC50 (nM), class

Dmax [1] [%] | Dmax [2] [%] | DC50 [3] [nM] | DC50 [4] [nM] | Dmax [5] [%] | Dmax [6] [%] | DC50 [7] [nM] | DC50 [8] [nM] | SMILES
93.3 | > 90 | 11.8 | ≤ 100 |  |  |  |  | Cn1ncc2c1CCC(=O)N2c1ccc(-c2cccc(C3CCC(=O)NC3=O)c2Cl)cc1 (stereo not shown) [Compound 316]
94 | > 90 | 21.5 | ≤ 100 |  |  |  |  | O=C1CCC(c2cccc(-c3ccc(N4CCCOC4=O)c(F)c3)c2Cl)C(=O)N1 (stereo not shown) [Compound 452, 3-(2-chloro-3′-fluoro-4′-(2-oxo-1,3-oxazinan-3-yl)-[1,1′-biphenyl]-3-yl)piperidine-2,6-dione]
61 | 60 to 90 | 1560 | > 1000 |  |  |  |  | O=C1CCC(c2cccc(-c3ccc(N4Cc5ccccc5C4=O)cc3)c2Cl)C(=O)N1 (stereo not shown) [Compound 456, 3-(2-chloro-4′-(1-oxoisoindolin-2-yl)-[1,1′-biphenyl]-3-yl)piperidine-2,6-dione]
98.5 | > 90 | 6.68 | ≤ 100 |  |  |  |  | O=C1CCC(c2cccc(-c3ccc(-n4cccc(CC(F)(F)F)c4=O)cc3)c2Cl)C(=O)N1 (stereo not shown) [Compound 417, 3-(2-chloro-4′-(2-oxo-3-(2,2,2-trifluoroethyl)pyridin-1(2H)-yl)-[1,1′-biphenyl]-3-yl)piperidine-2,6-dione]
 |  |  |  | 96.2 | > 90 | 6.51 | ≤ 100 | O=C1CCC(c2cccc(-c3ccc4c(c3)CCCN4)c2Cl)C(=O)N1 (stereo not shown) [Compound 486, 3-(2-chloro-3-(1,2,3,4-tetrahydroquinolin-6-yl)phenyl)piperidine-2,6-dione]
84.2 | 60 to 90 | 48 | ≤ 100 |  |  |  |  | Cn1ccc(COc2ccc(-c3cccc(C4CCC(=O)NC4=O)c3F)cc2)n1 (stereo not shown) [Compound 150, 3-(2-fluoro-4′-((1-methyl-1H-pyrazol-3-yl)methoxy)-[1,1′-biphenyl]-3-yl)piperidine-2,6-dione]
 |  |  |  | 91.8 | > 90 | 28.6 | ≤ 100 | Cn1ccc(Cn2c(=O)oc3cc(-c4cccc(C5CCC(=O)NC5=O)c4Cl)ccc32)n1 (stereo not shown) [Compound 507, 3-(2-chloro-3-(3-((1-methyl-1H-pyrazol-3-yl)methyl)-2-oxo-2,3-dihydrobenzo[d]oxazol-6-yl)phenyl)piperidine-2,6-dione]
95.5 | > 90 | 14.8 | ≤ 100 |  |  |  |  | [2H]c1c([2H])c(-n2ccccc2=O)c([2H])c([2H])c1-c1cccc(C2CCC(=O)NC2=O)c1Cl (stereo not shown) [Compound 462, 3-(2-chloro-3-(2,3,5,6-tetradeuterio-4-(2-oxo-1-pyridyl)phenyl)phenyl)piperidine-2,6-dione]
 |  |  |  | 78.4 | 60 to 90 | 220 | 100 to 1000 | O=C1CCC(c2cccc(-c3ccc4cn[nH]c4c3)c2Cl)C(=O)N1 (stereo not shown) [Compound 484, 3-(2-chloro-3-(1H-indazol-6-yl)phenyl)piperidine-2,6-dione]
97.8 | > 90 | 1.87 | ≤ 100 |  |  |  |  | CN1CCC2(CC2)N(c2ccc(-c3cccc(C4CCC(=O)NC4=O)c3Cl)cc2)C1=O (stereo not shown) [Compound 366, 3-(2-chloro-4′-(6-methyl-5-oxo-4,6-diazaspiro[2.5]octan-4-yl)-[1,1′-biphenyl]-3-yl)piperidine-2,6-dione]
80.9 | 60 to 90 | 125 | 100 to 1000 |  |  |  |  | CCNc1ccc(-c2cccc(C3CCC(=O)NC3=O)c2Cl)cc1 (stereo not shown) [Compound 115]
94.3 | > 90 | 17.1 | ≤ 100 |  |  |  |  | O=C1CCC(c2cccc(-c3ccc(CN4Cc5cnccc5C4=O)cc3)c2Cl)C(=O)N1 (stereo not shown) [Compound 300]
95.5 | > 90 | 10.6 | ≤ 100 |  |  |  |  | CC1CCN(c2ccc(-c3cccc(C4CCC(=O)NC4=O)c3Cl)cc2)C(=O)C1 (stereo not shown) [Compound 332]
94.9 | > 90 | 7.27 | ≤ 100 |  |  |  |  | Cc1cc(-c2cccc(C3CCC(=O)NC3=O)c2Cl)ccc1N (stereo not shown) [Compound 131]
88.6 | 60 to 90 | 47.6 | ≤ 100 |  |  |  |  | O=C1CCC(c2cccc(-c3ccc(CN4Cc5nccn5CC4=O)cc3)c2Cl)C(=O)N1 (stereo not shown) [Compound 276]
48.9 | < 60 | 7400 | > 1000 |  |  |  |  | Cn1ccc(CCc2ccc(-c3cccc(C4CCC(=O)NC4=O)c3Cl)cn2)n1 (stereo not shown) [Compound 249, 3-(2-chloro-3-(6-(2-(1-methyl-1H-pyrazol-3-yl)ethyl)pyridin-3-yl)phenyl)piperidine-2,6-dione]

Dmax [1] [%] | Dmax [2] [%] | DC50 [3] [nM] | DC50 [4] [nM] | Dmax [5] [%] | Dmax [6] [%] | DC50 [7] [nM] | DC50 [8] [nM] | SMILES
93.7 | > 90 | 12.7 | ≤ 100 |  |  |  |  | CC1(C)CCCC(=O)N1Cc1ccc(-c2cccc(C3CCC(=O)NC3=O)c2Cl)cc1 (stereo not shown) [Compound 292]
99.1 | > 90 | 3.01 | ≤ 100 |  |  |  |  | Cn1cnc(Cn2ncc3cc(-c4cccc(C5CCC(=O)NC5=O)c4Cl)ccc32)c1 (stereo not shown) [Compound 397, 3-(2-chloro-3-(1-((1-methyl-1H-imidazol-4-yl)methyl)-1H-indazol-5-yl)phenyl)piperidine-2,6-dione]
87.3 | 60 to 90 | 38.5 | ≤ 100 |  |  |  |  | O=C1CCC(c2cccc(-c3ccc(OCc4c[nH]cn4)cc3)c2Cl)C(=O)N1 (stereo not shown) [Compound 167, 3-(4′-((1H-imidazol-4-yl)methoxy)-2-chloro-[1,1′-biphenyl]-3-yl)piperidine-2,6-dione]
94.6 | > 90 | 14.6 | ≤ 100 |  |  |  |  | O=C1CC[C@@H](c2cccc(-c3ccc(Cn4ccccc4=O)cc3)c2Cl)C(=O)N1 [Compound 202, (S)-3-(2-chloro-4′-((2-oxopyridin-1(2H)-yl)methyl)-[1,1′-biphenyl]-3-yl)piperidine-2,6-dione]
96 | > 90 | 9.64 | ≤ 100 |  |  |  |  | O=C1CCC(c2cccc(-c3ccc(N4CC5CC5CC4=O)cc3)c2Cl)C(=O)N1 (stereo not shown) [Compound 307]
89.2 | 60 to 90 | 22.3 | ≤ 100 |  |  |  |  | Nc1ncn(Cc2ccc(-c3cccc(C4CCC(=O)NC4=O)c3Cl)cc2)n1 (stereo not shown) [Compound 110]
92.7 | > 90 | 35.8 | ≤ 100 |  |  |  |  | O=C1CCC(c2cccc(-c3ccc(-n4cc(C(F)(F)F)ccc4=O)cc3)c2Cl)C(=O)N1 (stereo not shown) [Compound 237, 3-(2-chloro-4′-(2-oxo-5-(trifluoromethyl)pyridin-1(2H)-yl)-[1,1′-biphenyl]-3-yl)piperidine-2,6-dione]
97.2 | > 90 | 4.87 | ≤ 100 |  |  |  |  | CC1(C)COC(=O)N1c1ccc(-c2cccc(C3CCC(=O)NC3=O)c2Cl)cc1 (stereo not shown) [Compound 415, 3-(2-chloro-4′-(4,4-dimethyl-2-oxooxazolidin-3-yl)-[1,1′-biphenyl]-3-yl)piperidine-2,6-dione]
84.8 | 60 to 90 | 101 | 100 to 1000 |  |  |  |  | O=C1CCC(c2cccc(-c3ccc(CN4CCN5CCCC5C4=O)cc3)c2Cl)C(=O)N1 (stereo not shown) [Compound 261]
 |  |  |  | 61.2 | 60 to 90 | 929 | 100 to 1000 | O=C1CCC(c2cccc(-c3cnc4c(c3)OCCN4)c2Cl)C(=O)N1 (stereo not shown) [Compound 494, 3-(2-chloro-3-(3,4-dihydro-2H-pyrido[3,2-b][1,4]oxazin-7-yl)phenyl)piperidine-2,6-dione]
88.7 | 60 to 90 | 34.7 | ≤ 100 |  |  |  |  | Cn1ccc(C(=O)Nc2ccc(-c3cccc(C4CCC(=O)NC4=O)c3Cl)cc2)n1 (stereo not shown) [Compound 207, N-[4-[2-chloro-3-(2,6-dioxo-3-piperidyl)phenyl]phenyl]-1-methyl-pyrazole-3-carboxamide]
96 | > 90 | 30.8 | ≤ 100 |  |  |  |  | Cn1cnc(Cc2ccc(-c3cccc(C4CCC(=O)NC4=O)c3Cl)cc2)c1 (stereo not shown) [Compound 408, 3-(2-chloro-4′-((1-methyl-1H-imidazol-4-yl)methyl)-[1,1′-biphenyl]-3-yl)piperidine-2,6-dione]
94.6 | > 90 | 29.3 | ≤ 100 |  |  |  |  | O=C1CCC(c2cccc(-c3ccc(OCc4cc[nH]n4)cc3)c2Cl)C(=O)N1 (stereo not shown) [Compound 203, 3-(4′-((1H-pyrazol-3-yl)methoxy)-2-chloro-[1,1′-biphenyl]-3-yl)piperidine-2,6-dione]
92.7 | > 90 | 14.9 | ≤ 100 |  |  |  |  | Cc1cc(-c2cccc(C3CCC(=O)NC3=O)c2Cl)ccc1OCCN1CCOCC1 (stereo not shown) [Compound 155, 3-(2-chloro-3′-methyl-4′-(2-morpholinoethoxy)-[1,1′-biphenyl]-3-yl)piperidine-2,6-dione]
89.3 | 60 to 90 | 4.48 | ≤ 100 |  |  |  |  | CN1Cc2cccc(-c3ccc(-c4cccc(C5CCC(=O)NC5=O)c4Cl)cc3)c2C1=O (stereo not shown) [Compound 439, 3-(2-chloro-4′-(2-methyl-3-oxoisoindolin-4-yl)-[1,1′-biphenyl]-3-yl)piperidine-2,6-dione]
